Key:
Format in all cases: in vivo
Chenopodium album [1] = assay: Test Example 1 upland field foliage treatment; details: Table 4, upland field foliage treatment, index 0-5
How it was run: (§1)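 Post-emergence foliar spray of water-diluted wettable powder at 1 kg active ingredient per hectare, applied 14 days after sowing in upland soil. Weed control or crop phytotoxicity rated 21 days later on a 0–5 scale (5: ≥90%, 0: <10%).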

Digitaria adscendens [2] = assay: Test Example 1 upland field foliage treatment; details: Table 4, upland field foliage treatment, index 0-5
How it was run: as §1

Setaria viridis [3] = assay: Test Example 1 upland field foliage treatment; details: Table 4, upland field foliage treatment, index 0-5
How it was run: as §1

Stellaria media [4] = assay: Test Example 1 upland field foliage treatment; details: Table 4, upland field foliage treatment, index 0-5
How it was run: as §1

soybean (Glycine max) [5] = assay: Test Example 1 upland field foliage treatment, crop phytotoxicity; details: Table 4, upland field foliage treatment, index 0-5
How it was run: as §1

[6] = system: wheat (Triticum aestivum); assay: as above; details: Table 4, upland field foliage treatment, index 0-5
How it was run: as §1

Chenopodium album [7] = assay: Test Example 2 upland soil treatment; details: Table 5, upland soil treatment, index 0-5
How it was run: (§2)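 Pre-emergence soil application the day after sowing, active ingredient at 1 kg per hectare as diluted wettable powder, seeds covered with about 1 cm soil. Assessed 21 days after application on a 0–5 scale (5 = ≥90% herbicidal effect or phytotoxicity; 0 = <10%).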

Digitaria adscendens [8] = assay: Test Example 2 upland soil treatment; details: Table 5, upland soil treatment, index 0-5
How it was run: as §2

Setaria viridis [9] = assay: Test Example 2 upland soil treatment; details: Table 5, upland soil treatment, index 0-5
How it was run: as §2

Stellaria media [10] = assay: Test Example 2 upland soil treatment; details: Table 5, upland soil treatment, index 0-5
How it was run: as §2

soybean (Glycine max) [11] = assay: Test Example 2 upland soil treatment, crop phytotoxicity; details: Table 5, upland soil treatment, index 0-5
How it was run: as §2

[12] = system: wheat (Triticum aestivum); assay: as above; details: Table 5, upland soil treatment, index 0-5
How it was run: as §2

Ammannia multiflora = assay: Test Example 3 paddy field treatment; details: Table 6, paddy field treatment, active ingredient 1 kg per hectare, 21st day after dropping, index 0-5
How it was run: (§3)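 Weed seeds sown in puddled paddy soil under 4 cm water, with two-leaf Koshihikari rice transplanted; 10 days later a wettable powder was applied to the water surface at 1 kg active ingredient/ha. Scored 21 days after application on a 0–5 scale (0 = <10%, 5 = ≥90% herbicidal effect or phytotoxicity).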

Echinochloa crusgalli = assay: Test Example 3 paddy field treatment; details: Table 6, paddy field treatment, active ingredient 1 kg per hectare, 21st day after dropping, index 0-5
How it was run: as §3

Monochoria vaginalis = assay: Test Example 3 paddy field treatment; details: Table 6, paddy field treatment, active ingredient 1 kg per hectare, 21st day after dropping, index 0-5
How it was run: as §3

Scirpus juncoides = assay: Test Example 3 paddy field treatment; details: Table 6, paddy field treatment, active ingredient 1 kg per hectare, 21st day after dropping, index 0-5
How it was run: as §3

Rice (Oryza sativa) = assay: Test Example 3 paddy field treatment, crop phytotoxicity; details: Table 6, paddy field treatment, transplanted rice, active ingredient 1 kg per hectare, 21st day after dropping, index 0-5
How it was run: as §3

Row | Compound | Herbicidal activity CA: Chenopodium album (Chenopodium album [1]) | Herbicidal activity DA: Digitaria adscendens (Digitaria adscendens [2]) | Herbicidal activity SV: Setaria viridis (Setaria viridis [3]) | Herbicidal activity SM: Stellaria media (Stellaria media [4]) | Herbicidal activity (phytotoxicity) GM: Soybean (Glycine max) (soybean (Glycine max) [5]) | Herbicidal activity (phytotoxicity) TA: Wheat (Triticum aestivum) [6] | Herbicidal activity CA: Chenopodium album (Chenopodium album [7]) | Herbicidal activity DA: Digitaria adscendens (Digitaria adscendens [8]) | Herbicidal activity SV: Setaria viridis (Setaria viridis [9]) | Herbicidal activity SM: Stellaria media (Stellaria media [10]) | Herbicidal activity (phytotoxicity) GM: Soybean (Glycine max) (soybean (Glycine max) [11]) | Herbicidal activity (phytotoxicity) TA: Wheat (Triticum aestivum) [12] | Herbicidal activity AM (Ammannia multiflora) | Herbicidal activity EC (Echinochloa crusgalli) | Herbicidal activity MV (Monochoria vaginalis) | Herbicidal activity SJ (Scirpus juncoides) | Herbicidal activity (phytotoxicity) OS (Rice (Oryza sativa))
1 | CNC(=O)C(Cn1cc(C)c(-c2ccc(Cl)cc2F)n1)=NOC [Compound 81] | 5 (herbicidal effect of not less than 90%, or phytotoxicity of 90% or more) | 5 (herbicidal effect of not less than 90%, or phytotoxicity of 90% or more) | 5 (herbicidal effect of not less than 90%, or phytotoxicity of 90% or more) | 5 (herbicidal effect of not less than 90%, or phytotoxicity of 90% or more) | 0 (herbicidal effect of not less than 0% and less than 10%, or phytotoxicity of 0% or more and less than 10%) | 0 (herbicidal effect of not less than 0% and less than 10%, or phytotoxicity of 0% or more and less than 10%) | 5 (herbicidal effect of not less than 90%, or phytotoxicity of 90% or more) | 5 (herbicidal effect of not less than 90%, or phytotoxicity of 90% or more) | 5 (herbicidal effect of not less than 90%, or phytotoxicity of 90% or more) | 5 (herbicidal effect of not less than 90%, or phytotoxicity of 90% or more) | 1 (herbicidal effect of not less than 10% and less than 30%, or phytotoxicity of 10% or more and less than 30%) | 0 (herbicidal effect of not less than 0% and less than 10%, or phytotoxicity of 0% or more and less than 10%) | 5 (herbicidal effect of not less than 90%, or phytotoxicity of 90% or more) | 5 (herbicidal effect of not less than 90%, or phytotoxicity of 90% or more) | 5 (herbicidal effect of not less than 90%, or phytotoxicity of 90% or more) | 5 (herbicidal effect of not less than 90%, or phytotoxicity of 90% or more) | 0 (herbicidal effect of not less than 0% and less than 10%, or phytotoxicity of 0% or more and less than 10%)
2 | CNC(=O)C(Cn1cc(C)c(-c2cc(C(F)(F)F)ccc2F)n1)=NOC [Compound 86] | 4 (herbicidal effect of not less than 70% and less than 90%, or phytotoxicity of 70% or more and less than 90%) | 5 (herbicidal effect of not less than 90%, or phytotoxicity of 90% or more) | 3 (herbicidal effect of not less than 50% and less than 70%, or phytotoxicity of 50% or more and less than 70%) | 4 (herbicidal effect of not less than 70% and less than 90%, or phytotoxicity of 70% or more and less than 90%) | 0 (herbicidal effect of not less than 0% and less than 10%, or phytotoxicity of 0% or more and less than 10%) | 0 (herbicidal effect of not less than 0% and less than 10%, or phytotoxicity of 0% or more and less than 10%) | 5 (herbicidal effect of not less than 90%, or phytotoxicity of 90% or more) | 5 (herbicidal effect of not less than 90%, or phytotoxicity of 90% or more) | 4 (herbicidal effect of not less than 70% and less than 90%, or phytotoxicity of 70% or more and less than 90%) | 5 (herbicidal effect of not less than 90%, or phytotoxicity of 90% or more) | 1 (herbicidal effect of not less than 10% and less than 30%, or phytotoxicity of 10% or more and less than 30%) | 0 (herbicidal effect of not less than 0% and less than 10%, or phytotoxicity of 0% or more and less than 10%) | 5 (herbicidal effect of not less than 90%, or phytotoxicity of 90% or more) | 5 (herbicidal effect of not less than 90%, or phytotoxicity of 90% or more) | 5 (herbicidal effect of not less than 90%, or phytotoxicity of 90% or more) | 4 (herbicidal effect of not less than 70% and less than 90%, or phytotoxicity of 70% or more and less than 90%) | 0 (herbicidal effect of not less than 0% and less than 10%, or phytotoxicity of 0% or more and less than 10%)
3 | CNC(=O)C(Cn1cc(C)c(-c2cc(F)c(OC)c(F)c2)n1)=NOC [Compound 92] | 5 (herbicidal effect of not less than 90%, or phytotoxicity of 90% or more) | 5 (herbicidal effect of not less than 90%, or phytotoxicity of 90% or more) | 5 (herbicidal effect of not less than 90%, or phytotoxicity of 90% or more) | 5 (herbicidal effect of not less than 90%, or phytotoxicity of 90% or more) | 0 (herbicidal effect of not less than 0% and less than 10%, or phytotoxicity of 0% or more and less than 10%) | 0 (herbicidal effect of not less than 0% and less than 10%, or phytotoxicity of 0% or more and less than 10%) | 5 (herbicidal effect of not less than 90%, or phytotoxicity of 90% or more) | 5 (herbicidal effect of not less than 90%, or phytotoxicity of 90% or more) | 5 (herbicidal effect of not less than 90%, or phytotoxicity of 90% or more) | 5 (herbicidal effect of not less than 90%, or phytotoxicity of 90% or more) | 0 (herbicidal effect of not less than 0% and less than 10%, or phytotoxicity of 0% or more and less than 10%) | 0 (herbicidal effect of not less than 0% and less than 10%, or phytotoxicity of 0% or more and less than 10%) | 5 (herbicidal effect of not less than 90%, or phytotoxicity of 90% or more) | 5 (herbicidal effect of not less than 90%, or phytotoxicity of 90% or more) | 5 (herbicidal effect of not less than 90%, or phytotoxicity of 90% or more) | 5 (herbicidal effect of not less than 90%, or phytotoxicity of 90% or more) | 0 (herbicidal effect of not less than 0% and less than 10%, or phytotoxicity of 0% or more and less than 10%)
4 | CCc1cn(CC(=NOC)C(=O)NC)nc1-c1ccccc1 [Compound 98] | 4 (herbicidal effect of not less than 70% and less than 90%, or phytotoxicity of 70% or more and less than 90%) | 4 (herbicidal effect of not less than 70% and less than 90%, or phytotoxicity of 70% or more and less than 90%) | 3 (herbicidal effect of not less than 50% and less than 70%, or phytotoxicity of 50% or more and less than 70%) | 4 (herbicidal effect of not less than 70% and less than 90%, or phytotoxicity of 70% or more and less than 90%) | 0 (herbicidal effect of not less than 0% and less than 10%, or phytotoxicity of 0% or more and less than 10%) | 0 (herbicidal effect of not less than 0% and less than 10%, or phytotoxicity of 0% or more and less than 10%) | 4 (herbicidal effect of not less than 70% and less than 90%, or phytotoxicity of 70% or more and less than 90%) | 4 (herbicidal effect of not less than 70% and less than 90%, or phytotoxicity of 70% or more and less than 90%) | 3 (herbicidal effect of not less than 50% and less than 70%, or phytotoxicity of 50% or more and less than 70%) | 5 (herbicidal effect of not less than 90%, or phytotoxicity of 90% or more) | 0 (herbicidal effect of not less than 0% and less than 10%, or phytotoxicity of 0% or more and less than 10%) | 0 (herbicidal effect of not less than 0% and less than 10%, or phytotoxicity of 0% or more and less than 10%) | 4 (herbicidal effect of not less than 70% and less than 90%, or phytotoxicity of 70% or more and less than 90%) | 5 (herbicidal effect of not less than 90%, or phytotoxicity of 90% or more) | 5 (herbicidal effect of not less than 90%, or phytotoxicity of 90% or more) | 4 (herbicidal effect of not less than 70% and less than 90%, or phytotoxicity of 70% or more and less than 90%) | 0 (herbicidal effect of not less than 0% and less than 10%, or phytotoxicity of 0% or more and less than 10%)

Reference: patent publication US7192906B2, “Substituted pyrazole derivatives, production process thereof, and herbicide compositions containing the derivatives” (SDS Biotech K.K., priority 2001, dated 2007)
